This is an account of results in US11753410B2, “Hormone receptor modulators for treating metabolic mutagenic and fibrotic conditions and disorders” (priority 2017, dated 2023).

Assay [1] deals with T1, ligand binding domain of human FXR (Homo sapiens, UniProt Q96RI1).
T1 construct: purchased Thermofisher (LanthaScreen) PV4833
T1 sequence (Q96RI1 262-486 limits assumed): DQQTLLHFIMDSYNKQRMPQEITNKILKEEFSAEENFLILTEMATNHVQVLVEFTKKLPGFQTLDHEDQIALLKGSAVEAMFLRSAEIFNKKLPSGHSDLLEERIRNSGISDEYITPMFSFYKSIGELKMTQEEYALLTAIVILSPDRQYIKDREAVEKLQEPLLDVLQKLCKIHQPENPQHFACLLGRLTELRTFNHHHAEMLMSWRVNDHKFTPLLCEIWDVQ
The assay is described as follows: biochemical. As to conditions: for Emax: extent of activation relative to GW4064, read-out: Ligand Binding % Efficacy; for EC50: −log EC50, concentration required to produce 50% activation, FRET 520 nm/495 nm, 1 hour at room temperature, read-out: Ligand Binding pEC50 (converted).

The target in assay [2] is T2, human Farnesoid X receptor ligand-binding domain/Gal4 DNA binding domain chimera (Homo sapiens, UniProt Q96RI1).
T2 construct: host or cells: FXR-UAS-bla HEK 293T (CellSensor UAS-bla HEK 293T)
T2 sequence (Q96RI1 262-486 limits assumed): T1 sequence (Q96RI1 262-486 limits assumed)
The assay is described as follows: Cell-based assay of FXR activation (FXR-UAS-bla HEK 293T beta-lactamase reporter). To be noted: for Emax: HEK-293T, read-out: Cellular % Efficacy. The method, then:
FXR activation was measured using a cell line and procedure obtained from Life Technologies (Cat #K1691). […] Activation of FXR by bound ligands results in transcriptional activation of the beta-lactamase reporter gene, which is detected via assay of beta-lactamase activity.
Cells are harvested and diluted into assay medium containing phenol red-free DMEM supplemented with 2% Charcoal-stripped FBS, pyruvate, non-essential amino acids. Cells are then transferred to a 384 well assay plate. Test compounds are dissolved in DMSO and a 3-fold serial dilution series is generated, then further diluted into assay medium. Compounds in assay medium are added to cells in the 384 well plate and allowed to incubate 16 h at 37 C in the presence of 5% CO2.
A FRET-based […] (CCF4) is loaded into cells as its acetomethoxy ester. Intracellular esterases liberate free CCF4, a cephalosporin core linking 7-hydroxycoumarin to fluorescein. In the presence of beta-lactamase activity produced in the presence of FXR agonists, cleavage of CCF4 spatially separates the two dyes and disrupts FRET, so that exciting the coumarin at 409 nm now produces a blue fluorescence signal at 447 nm. The change in FRET signal is plotted against the test compound concentration and fit to a 3-parameter logistical equation.

On to `O=C(O)c1cc(OC2CC2)c2nc(N3C[C@@H]4C[C@H]3C[C@H]4OCc3c(-c4c(Cl)cccc4Cl)cnn3C3CC3)sc2c1` [Compound I-48, 4-cyclopropoxy-2-[(1S,4S,5R)-5-{[1-cyclopropyl-4-(2,6-dichlorophenyl)-1H-pyrazol-5-yl]methoxy}-2-azabicyclo[2.2.1]heptan-2-yl]-1,3-benzothiazole-6-carboxylic acid], for which, in assay [1], the Emax amounted to 88% and the EC50 was 39.8 nM. In assay [2], the EC50 is 20 nM and the Emax stood at 101%.
For `O=C(O)c1cc(C2CCOCC2)c2nc(N3C[C@@H]4C[C@H]3C[C@H]4OCc3c(-c4c(Cl)cccc4Cl)cnn3C3CC3)sc2c1` [Compound I-49, 2-[(1S,4S,5R)-5-{[1-cyclopropyl-4-(2,6-dichlorophenyl)-1H-pyrazol-5-yl]methoxy}-2-azabicyclo[2.2.1]heptan-2-yl]-4-(oxan-4-yl)-1,3-benzothiazole-6-carboxylic acid], in assay [1], the Emax was 82% and the EC50 is 100 nM. In addition, in assay [2], the EC50 is under 63.1 nM and the Emax was determined as 105%.
As to `O=C(O)c1ccc(N2C[C@@H]3C[C@H]2C[C@H]3OCc2c(C3CC3)nnn2-c2c(Cl)cccc2Cl)cc1` [Compound I-52, 4-[(1S,4S,5R)-5-{[4-cyclopropyl-1-(2,6-dichlorophenyl)-1H-1,2,3-triazol-5-yl]methoxy}-2-azabicyclo[2.2.1]heptan-2-yl]benzoic acid], the values for the Emax in assay [1] and in assay [2] were 140% and 106%, respectively. For the same molecule, the EC50 in assay [1] is 6.31 nM; in assay [2], 3.98 nM.
`O=C(O)c1ccc(N2C[C@@H]3C[C@H]2C[C@H]3OCc2c(C3CC3)nnn2-c2c(Cl)cccc2Cl)cc1F` [Compound I-53, 4-[(1S,4S,5R)-5-{[4-cyclopropyl-1-(2,6-dichlorophenyl)-1H-1,2,3-triazol-5-yl]methoxy}-2-azabicyclo[2.2.1]heptan-2-yl]-2-fluorobenzoic acid]: in assay [1], the Emax turned out to be 170% and the EC50 is 6.31 nM. Also, in assay [2], the EC50 was 3.98 nM and the Emax is 92%.
Turning to `O=C(O)CCc1ccc(N2C[C@@H]3C[C@H]2C[C@H]3OCc2c(C3CC3)nnn2-c2c(Cl)cccc2Cl)c(F)c1` [Compound I-54, 3-{4-[(1S,4S,5R)-5-{[4-cyclopropyl-1-(2,6-dichlorophenyl)-1H-1,2,3-triazol-5-yl]methoxy}-2-azabicyclo[2.2.1]heptan-2-yl]-3-fluorophenyl}propanoic acid], the figures for the Emax in assay [1] and in assay [2] were 152% and 100%, respectively. Further, the EC50 is 20 nM in assay [1] and 12.6 nM in assay [2].
Consider `O=C(O)CCc1ccc(N2C[C@@H]3C[C@H]2C[C@H]3OCc2c(C3CC3)nnn2-c2c(Cl)cccc2Cl)cc1F` [Compound I-55, 3-{4-[(1S,4S,5R)-5-{[4-cyclopropyl-1-(2,6-dichlorophenyl)-1H-1,2,3-triazol-5-yl]methoxy}-2-azabicyclo[2.2.1]heptan-2-yl]-2-fluorophenyl}propanoic acid], for which, in assay [1], the Emax is 147% and the EC50 was 63.1 nM. In addition, in assay [2], the EC50 was 15.8 nM and the Emax turned out to be 91%.
As to `O=C(NS(=O)(=O)C1CCOCC1)c1ccc(N2C[C@@H]3C[C@H]2C[C@H]3OCc2c(C3CC3)nnn2-c2c(Cl)cccc2Cl)cc1` [Compound I-56, 4-[(1S,4S,5R)-5-{[4-cyclopropyl-1-(2,6-dichlorophenyl)-1H-1,2,3-triazol-5-yl]methoxy}-2-azabicyclo[2.2.1]heptan-2-yl]-N-(oxane-4-sulfonyl)benzamide], in assay [1], the Emax was 180% and the EC50 was 2 nM. Also, in assay [2], the EC50 was 10 nM and the Emax was 104%.
Regarding `O=C(O)c1cc(O[C@H]2CCOC2)c2nc(N3C[C@@H]4C[C@H]3C[C@H]4OCc3c(C4CC4)nnn3-c3c(Cl)cccc3Cl)sc2c1` [Compound I-61, 2-[(1S,4S,5R)-5-{[4-cyclopropyl-1-(2,6-dichlorophenyl)-1H-1,2,3-triazol-5-yl]methoxy}-2-azabicyclo[2.2.1]heptan-2-yl]-4-[(3S)-oxolan-3-yloxy]-1,3-benzothiazole-6-carboxylic acid], in assay [1], the Emax worked out at 158% and the EC50 is 3.98 nM. For the same molecule, in assay [2], the EC50 was 25.1 nM and the Emax stood at 107%.
Regarding `O=C(O)c1cc(O[C@@H]2CCOC2)c2nc(N3C[C@@H]4C[C@H]3C[C@H]4OCc3c(C4CC4)nnn3-c3c(Cl)cccc3Cl)sc2c1` [Compound I-62, 2-[(1S,4S,5R)-5-{[4-cyclopropyl-1-(2,6-dichlorophenyl)-1H-1,2,3-triazol-5-yl]methoxy}-2-azabicyclo[2.2.1]heptan-2-yl]-4-[(3R)-oxolan-3-yloxy]-1,3-benzothiazole-6-carboxylic acid], in assay [1], the Emax worked out at 158% and the EC50 was 3.98 nM. Also, in assay [2], the EC50 is 25.1 nM and the Emax amounted to 106%.
As to `O=C(O)c1cc(OC(F)(F)F)c2nc(N3C[C@@H]4C[C@H]3C[C@H]4OCc3c(-c4c(Cl)cccc4Cl)nnn3C3CC3)sc2c1` [Compound I-63, 2-[(1S,4S,5R)-5-{[1-cyclopropyl-4-(2,6-dichlorophenyl)-1H-1,2,3-triazol-5-yl]methoxy}-2-azabicyclo[2.2.1]heptan-2-yl]-4-(trifluoromethoxy)-1,3-benzothiazole-6-carboxylic acid], the results for the Emax in assay [1] and in assay [2] were 180% and 103%, respectively. For the same molecule, the EC50 in assay [1] and in assay [2] was 12.6 nM in each case.
In the case of `O=C(O)c1cc(OC2CC2)c2nc(N3C[C@@H]4C[C@H]3C[C@H]4OCc3c(-c4c(Cl)cccc4Cl)nnn3C3CC3)sc2c1` [Compound I-64, 4-cyclopropoxy-2-((1S,4S,5R)-5-((1-cyclopropyl-4-(2,6-dichlorophenyl)-1H-1,2,3-triazol-5-yl)methoxy)-2-azabicyclo[2.2.1]heptan-2-yl)benzo[d]thiazole-6-carboxylic acid], in assay [1], the Emax was determined as 172% and the EC50 was 5.01 nM. For the same molecule, in assay [2], the EC50 was 10 nM and the Emax was 113%.
The matching figures for `O=C(O)c1cc(C2CCOCC2)c2nc(N3C[C@@H]4C[C@H]3C[C@H]4OCc3c(-c4c(Cl)cccc4Cl)nnn3C3CC3)sc2c1` [Compound I-67, 2-((1S,4S,5R)-5-((1-cyclopropyl-4-(2,6-dichlorophenyl)-1H-1,2,3-triazol-5-yl)methoxy)-2-azabicyclo[2.2.1]heptan-2-yl)-4-(tetrahydro-2H-pyran-4-yl)benzo[d]thiazole-6-carboxylic acid]: 148%, 20 nM, 10 nM and 111%.
Regarding `O=C(O)c1cc(C2CCC2)c2nc(N3C[C@@H]4C[C@H]3C[C@H]4OCc3c(-c4c(Cl)cccc4Cl)nnn3C3CC3)sc2c1` [Compound I-68, 4-cyclobutyl-2-[(1S,4S,5R)-5-{[1-cyclopropyl-4-(2,6-dichlorophenyl)-1H-1,2,3-triazol-5-yl]methoxy}-2-azabicyclo[2.2.1]heptan-2-yl]-1,3-benzothiazole-6-carboxylic acid], in assay [1], the Emax was found to be 178% and the EC50 is 3.98 nM. For the same molecule, in assay [2], the EC50 is 1.58 nM and the Emax came to 106%.
Regarding `O=C(O)c1cc(C2CCCC2)c2nc(N3C[C@@H]4C[C@H]3C[C@H]4OCc3c(-c4c(Cl)cccc4Cl)nnn3C3CC3)sc2c1` [Compound I-69, 4-cyclopentyl-2-[(1S,4S,5R)-5-{[1-cyclopropyl-4-(2,6-dichlorophenyl)-1H-1,2,3-triazol-5-yl]methoxy}-2-azabicyclo[2.2.1]heptan-2-yl]-1,3-benzothiazole-6-carboxylic acid], the Emax came to 168% in assay [1] and 111% in assay [2]. The EC50 in assay [1] is 6.31 nM; in assay [2], 2.51 nM.
Turning to `O=C(O)c1ccc(N2C[C@@H]3C[C@H]2C[C@H]3OCc2c(-c3c(Cl)cccc3Cl)nnn2C2CC2)cc1` [Compound I-70, 4-[(1S,4S,5R)-5-{[1-cyclopropyl-4-(2,6-dichlorophenyl)-1H-1,2,3-triazol-5-yl]methoxy}-2-azabicyclo[2.2.1]heptan-2-yl]benzoic acid], the Emax in assay [1] worked out at 155%; in assay [2] it was 106%. The EC50 in assay [1] was 63.1 nM; in assay [2], 39.8 nM.
